Results from US11160796B2, “Anti-androgens for the treatment of non-metastatic castration-resistant prostate cancer” (priority 2017, dated 2021).

Legend:
[1] = Incubation with liver S9 fraction and liver microsomes; format: in vitro ADME; conditions: incubated for up to 120 minutes; rat, dog, and human
Source text: The primary in vivo metabolites were formed by N-demethylation and amide hydrolysis in the rat and dog.

[2] = Fertility study in male rats; format: in vivo
[3] = test system: non-metastatic castration-resistant prostate cancer (NM-CRPC); test: Phase III study (SPARTAN, Study 1): efficacy; format: in vivo, human; conditions: for Metastasis Free Survival (MFS), median: 240 mg once daily + ADT, ITT, BICR
Source text: The study consisted of a Screening Phase of up to 35 days before randomization to establish eligibility and document baseline measurements, a double-blind Treatment Phase (28-day treatment cycles; continuous dosing), and a Long-term Follow-up Phase to monitor PFS, survival status, subsequent prostate cancer therapy, PRO, and MRU. […] The randomization was stratified as follows: • PSADT: <6 months vs. >6 months; • Bone-sparing agent use: Yes vs. No; and • Loco-regional disease: N0 vs. N1 (ie, nodal disease).
All patients who were not surgically castrated received ADT continuously throughout the study. […] Systemic corticosteroids were not allowed at study entry. […] Patients randomized to either arm were to continue treatment until disease progression defined by blinded central imaging review (BICR), initiation of new treatment, unacceptable toxicity or withdrawal.
With the softgel capsules only, subjects could switch to a twice daily dosing regimen (4 tables each period) if gastrointestinal issues arose with the once daily schedule. […] For the purposes of this study, a treatment cycle consisted of 4 weeks (28 days).
The primary efficacy endpoint was metastasis-free survival (MFS), defined as the time from randomization to the time of first evidence of BICR-confirmed bone or soft tissue distant metastasis or death due to any cause, whichever occurred first. Metastasis-free survival data for subjects without metastasis or death were censored on the date of the last tumor assessment (or, if no tumor assessment was performed after the baseline visit, at the date of randomization). Censoring rules based on FDA and CHMP guidance were applied for analyses of MFS (referred to in the text as US censoring or ex-US censoring).
Patients were stratified by Prostate Specific Antigen (PSA) Doubling Time (PSADT), the use of bone-sparing agents, and locoregional disease. Patients were required to have a PSADT≤10 months and confirmation of non-metastatic disease by blinded independent central review (BICR).
The major efficacy outcome measure of the study was metastasis-free survival (MFS), defined as the time from randomization to the time of first evidence of BICR-confirmed distant metastasis, defined as new bone or soft tissue lesions or enlarged lymph nodes above the iliac bifurcation, or death due to any cause, whichever occurred first. Additional efficacy endpoints were time to metastasis (TTM), progression-free survival (PFS) which also includes locoregional progression, time to symptomatic progression, and overall survival (OS).

[4] = Phase III study (SPARTAN, Study 1): safety; format: in vivo, human
Source text: SPARTAN, a randomized (2:1), double-blind, placebo-controlled, multi-center clinical study, enrolled patients who had non-metastatic, castration-resistant prostate cancer (NM-CRPC).

[5] = Dedicated QT study in patients with CRPC; format: in vivo, human; conditions: 240 mg once daily
Source text: There was no difference greater than 20 ms in the mean QT interval change from baseline, based on the Fridericia correction method, across all timepoints at steady-state.
The maximum mean QTcF change from baseline was 12.4 ms (2-sided 90% upper CI: 16.0 ms).

CYP3A4 = target: T1, CYP3A4 (Homo sapiens, UniProt P08684); test: Contribution of CYP3A4 in the metabolism of apalutamide; format: in vivo; conditions: estimated
T1 construct: from tissue; host or cells: human subjects, in vivo (clinical pharmacology)
T1 sequence (P08684 whole entry): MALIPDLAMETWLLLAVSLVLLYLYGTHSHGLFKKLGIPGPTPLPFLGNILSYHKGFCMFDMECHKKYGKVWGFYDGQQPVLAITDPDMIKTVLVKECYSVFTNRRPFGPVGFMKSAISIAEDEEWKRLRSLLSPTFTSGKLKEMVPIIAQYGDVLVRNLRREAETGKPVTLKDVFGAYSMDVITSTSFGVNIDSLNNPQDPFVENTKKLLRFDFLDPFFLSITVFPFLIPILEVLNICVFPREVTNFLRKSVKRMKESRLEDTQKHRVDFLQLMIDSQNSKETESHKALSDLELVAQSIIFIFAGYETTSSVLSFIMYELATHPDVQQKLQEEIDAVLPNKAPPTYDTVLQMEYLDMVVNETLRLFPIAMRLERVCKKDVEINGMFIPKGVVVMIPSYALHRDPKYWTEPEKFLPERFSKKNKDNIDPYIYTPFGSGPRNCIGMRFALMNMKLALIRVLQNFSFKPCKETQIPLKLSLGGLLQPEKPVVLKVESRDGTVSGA

[6] = Drug-drug interaction studies: effect of other medications on apalutamide; format: in vivo, human
[7] = Physicochemical description (ionization, solubility)
Source text: The Chemical name is (4-[7-(6-Cyano-5-trifluoromethylpyridin-3-yl)-8-oxo-6-thioxo-5,7-diazaspiro[3.4]oct-5-yl]-2-fluoro-N-methylbenzamide). Apalutamide is a white to slightly yellow powder.

BCRP/OATP1B1 = test: Drug-drug interaction study, cocktail approach: rosuvastatin; parameters: species or system human; conditions: in vivo
[8] = Bacterial reverse mutation (Ames) assay
[9] = In vitro chromosome aberration test; format: cell-based

Question: For `CNC(=O)c1ccc(N2C(=S)N(c3cnc(C#N)c(C(F)(F)F)c3)C(=O)C23CCC3)cc1F` [apalutamide, 4-[7-(6-cyano-5-trifluoromethylpyridin-3-yl)-8-oxo-6-thioxo-5,7-diazaspiro[3.4]oct-5-yl]-2-fluoro-N-methylbenzamide], which turnover [1] is on record?
Answer: Its turnover is “very low turnover”.

Question: What about the “live fetuses (pre- and/or post-implantation loss)” value ([2]; 4 weeks of 150 mg/kg/day) of the same compound?
Answer: Its value is “reduced number of live fetuses”.

Question: And the “dose with decreased sperm concentration and motility, copulation and fertility rates, reduced secondary sex gland and epididymis weights” value ([2]; 4 weeks of dosing, male rats)?
Answer: The value was > 25 mg/kg/day.

Question: What about the “reversibility of effects on male rats” value ([2]; after 8 weeks from the last administration) of the same compound?
Answer: Its value is “reversible”.

Question: What about the “Metastasis Free Survival (MFS), median” value [3] of the same compound?
Answer: Its value is 41 months.

Question: What about the “Metastasis Free Survival (MFS), median” value ([3]; listed as Apalutamide) of the same compound?
Answer: The value was 40.5 months.

Question: And the “decrease in the risk of symptomatic progression” value ([3]; compared with placebo)?
Answer: The value was 55%.

Question: What about the “Progression-free Survival (PFS), median” value ([3]; in vivo) of the same compound?
Answer: The value was 40.5 months.

Question: What about the “Time to Metastasis (TTM), median” value ([3]; in vivo) of the same compound?
Answer: The value was 40.5 months.

Question: What about the “MFS HR, subgroup PSA doubling time of >6 months” value ([3]; non-stratified analysis) of the same compound?
Answer: The value was 0.30.

Question: And the “MFS HR, subgroup PSA doubling time of months” value ([3]; non-stratified analysis)?
Answer: The value was 0.29.

Question: What about the “MFS HR, total study population” value ([3]; non-stratified analysis) of the same compound?
Answer: Its value is 0.30.

Question: And the “decrease in the risk of distant metastasis or death” value ([3]; vs placebo)?
Answer: Its value is 72%.

Question: And the Arthralgia ([4]; All Grades)?
Answer: Its Arthralgia is 15.9%.

Question: What about the Fall ([4]; All Grades) of the same compound?
Answer: The Fall was 15.6%.

Question: And the “Fracture (grouped term)” value ([4]; All Grades)?
Answer: Its value is 11.7%.

Question: What about the Hypercholesterolemia ([4]; All Grades) of the same compound?
Answer: The Hypercholesterolemia was 6.1%.

Question: What about the Hypertriglyceridemia ([4]; All Grades) of the same compound?
Answer: The Hypertriglyceridemia was 3.5%.

Question: What about the “Hypothyroidism (grouped term)” value ([4]; All Grades) of the same compound?
Answer: The value was 8.1%.

Question: And the Pruritus ([4]; All Grades)?
Answer: The Pruritus was 6.2%.

Question: And the Seizure ([4]; All Grades)?
Answer: The Seizure was 0.2%.

Question: What about the “Skin rash (grouped term)” value ([4]; All Grades) of the same compound?
Answer: The value was 24%.

Question: And the Weight decreased ([4]; All Grades)?
Answer: The Weight decreased was 16.1%.

Question: And the Fatigue ([4]; All Grades, N = 803)?
Answer: Its Fatigue is 30.4%.

Question: And the “Skin rash (grouped term)” value ([4]; All Grades, listed as Apalutamide)?
Answer: The value was 23.8%.

Question: And the Arthralgia ([4]; Grade 3-4)?
Answer: The Arthralgia was 0%.

Question: What about the Fall ([4]; Grade 3-4) of the same compound?
Answer: Its Fall is 1.7%.

Question: And the Fatigue ([4]; Grade 3-4)?
Answer: The Fatigue was 0.9%.

Question: And the “Fracture (grouped term)” value ([4]; Grade 3-4)?
Answer: Its value is 2.7%.

Question: What about the Hypercholesterolemia ([4]; Grade 3-4) of the same compound?
Answer: The Hypercholesterolemia was 0%.

Question: And the Hypertriglyceridemia ([4]; Grade 3-4)?
Answer: The Hypertriglyceridemia was 0.6%.

Question: And the “Hypothyroidism (grouped term)” value ([4]; Grade 3-4)?
Answer: The value was 0%.

Question: What about the Pruritus ([4]; Grade 3-4) of the same compound?
Answer: The Pruritus was 0.2%.

Question: What about the Seizure ([4]; Grade 3-4) of the same compound?
Answer: Its Seizure is 0%.

Question: What about the “Skin rash (grouped term)” value ([4]; Grade 3-4) of the same compound?
Answer: Its value is 5.2%.

Question: What about the Weight decreased ([4]; Grade 3-4) of the same compound?
Answer: The Weight decreased was 1.1%.

Question: And the “onset of skin rash, median” value ([4]; days of treatment)?
Answer: The value was 82 days.

Question: And the “Grade 3 skin rashes (covering >30% body surface area)” value ([4]; in vivo)?
Answer: The value was 5.2%.

Question: What about the “Hypothyroidism in patients already receiving thyroid replacement therapy” value ([4]; in vivo) of the same compound?
Answer: Its value is 28%.

Question: And the “Hypothyroidism in patients not receiving thyroid replacement therapy” value ([4]; in vivo)?
Answer: Its value is 5.7%.

Question: And the “discontinuations due to adverse events” value ([4]; in vivo)?
Answer: Its value is 11%.

Question: What about the “dose interruption among patients with skin rash” value ([4]; in vivo) of the same compound?
Answer: The value was 28%.

Question: What about the “dose reduction among patients with skin rash” value ([4]; in vivo) of the same compound?
Answer: Its value is 12%.

Question: What about the “dose reduction, reason "other"” value ([4]; in vivo) of the same compound?
Answer: Its value is 9.7%.

Question: And the “dose reduction, reason adverse event” value ([4]; in vivo)?
Answer: The value was 11%.

Question: What about the “patients whose skin rash resolved” value ([4]; in vivo) of the same compound?
Answer: Its value is 81%.

Question: And the “recurrence of skin rash in patients who were re-challenged” value ([4]; in vivo)?
Answer: Its value is “approximately half”.

Question: What about the “subjects receiving no dose modifications” value ([4]; in vivo) of the same compound?
Answer: Its value is 79%.

Question: What about the “subjects with 2 dose interruptions” value ([4]; in vivo) of the same compound?
Answer: Its value is 6.6%.

Question: What about the “subjects with dose interruptions due to TEAEs” value ([4]; in vivo) of the same compound?
Answer: The value was 34%.

Question: And the “subjects with dose reductions” value ([4]; in vivo)?
Answer: The value was 21%.

Question: What about the “subjects with one dose interruption” value ([4]; in vivo) of the same compound?
Answer: The value was 22%.

Question: And the “subjects with one dose reduction” value ([4]; in vivo)?
Answer: The value was 8.2%.

Question: And the “subjects with two dose reductions” value ([4]; in vivo)?
Answer: Its value is 13%.

Question: What about the “time to resolution of rash from onset, median” value ([4]; in vivo) of the same compound?
Answer: The value was 60 days.

Question: And the “treatment discontinuation among patients who experienced skin rash” value ([4]; in vivo)?
Answer: The value was 9%.

Question: And the “maximum mean QTcF change from baseline” value ([5]; 45 patients with CRPC)?
Answer: Its value is 12.4 ms.

Question: What about the “difference in mean QT interval change from baseline (Fridericia correction)” value ([5]; all timepoints at steady-state) of the same compound?
Answer: Its value is ≤ 20 ms.

Question: And the “contribution of CYP3A4 in the metabolism” value (CYP3A4; at steady-state)?
Answer: The value was 37%.

Question: What about the “contribution of CYP3A4 in the metabolism” value (CYP3A4; following single dose) of the same compound?
Answer: Its value is 13%.

Question: What about the “increase in AUC of apalutamide” value ([6]; 240 mg single dose with gemfibrozil) of the same compound?
Answer: The value was 68%.

Question: And the “decrease in Cmax of apalutamide” value ([6]; 240 mg single dose with gemfibrozil (strong CYP2C8 inhibitor))?
Answer: Its value is 21%.

Question: What about the AUC of apalutamide ([6]; 240 mg single dose with itraconazole) of the same compound?
Answer: Its AUC of apalutamide is “similar”.

Question: And the “decrease in Cmax of apalutamide” value ([6]; 240 mg single dose with itraconazole (strong CYP3A4 inhibitor))?
Answer: The value was 22%.

Question: And the solubility ([7]; aqueous media over a wide range of pH values)?
Answer: The solubility was “practically insoluble”.

Question: And the ionization ([7]; relevant physiological pH condition)?
Answer: Its ionization is “not ionizable”.

Question: What about the BCRP/OATP1B1 inducer clinically (BCRP/OATP1B1) of the same compound?
Answer: The BCRP/OATP1B1 inducer clinically was “weak and weak inducer”.

Question: And the “impact on Cmax of rosuvastatin” value (BCRP/OATP1B1)?
Answer: Its value is “no impact”.

Question: And the “mutations in the bacterial reverse mutation (Ames) assay” value [8]?
Answer: Its value is “did not induce mutations”.

Question: And the “genotoxicity, in vitro chromosome aberration” value [9]?
Answer: Its value is “not genotoxic”.
